13 compounds from ChEMBL document CHEMBL1147867, “Identification of antitumour activity of novel derivatives of 8-aryl-2,6,7,8-tetrahydroimidazo[2,1-c][1,2,4]triazine-3,4-dione and 8-aryl-4-imino-2,3,7,8-tetrahydroimidazo[2,1-c][1,2,4]triazin-3(6H)-one” (Bioorg Med Chem, 2007) can be followed below.

A short description of data set [1]: Cytotoxicity against Vero cells at 10 ug/ml after 72 hrs. The data set is classed as cell-based. Particulars: chlorocebus sabaeus, read-out: Inhibition.
Data set [2] is described as follows: Cytotoxicity against Vero cells at 50 ug/ml after 72 hrs. The format is cell-based. The following applies: chlorocebus sabaeus, read-out: Inhibition.
In data set [3] the test system is HeLa. Kind of data set: Cytotoxicity against human HeLa cells at 10 ug/ml after 72 hrs. The data set is classed as functional.
Data set [4] is described as follows: Cytotoxicity against human LS180 cells at 50 ug/ml after 72 hrs. The data set is classed as functional. The following applies: LS180, 72 h.
Data set [5] deals with HeLa. As to the kind of experiment: Cytotoxicity against human HeLa cells at 50 ug/ml after 72 hrs. The format is functional.
Data set [6] has as its system A549. Kind of data set: Anticancer activity against human A549 cells at 10 ug/ml after 72 hrs. The data set is classed as functional. The following applies: A549, 72 h.
The subject of data set [7] is A549. As to the kind of experiment: Anticancer activity against human A549 cells at 50 ug/ml after 72 hrs. The format is functional. The following applies: A549, 72 h.
For data set [8], the system named is T47D. As to the kind of experiment: Cytotoxicity against human T47D cells at 10 ug/ml after 72 hrs. The format is functional.
The subject of data set [9] is T47D. Kind of data set: Cytotoxicity against human T47D cells at 50 ug/ml after 72 hrs. The data set is classed as functional.
A short description of data set [10]: Cytotoxicity against human LS180 cells at 10 ug/ml after 72 hrs. Particulars: LS180, 72 h. The data set is classed as functional.
The test system of data set [11] is RPMI-8226. As to the kind of experiment: Cell viability in human RPMI 8226 ECACC 87012702 cancer cells at 1 uM after 24 hrs by MTT assay. The format is functional.
Data set [12] has as its system RPMI-8226. As to the kind of experiment: Cell viability in human RPMI 8226 ECACC 87012702 cancer cells at 100 uM after 24 hrs by MTT assay. The data set is classed as functional.
Data set [13] in a line: Acute toxicity in mouse. The data set is classed as organism-based. Particulars: in vivo.
The nature of data set [14]: Cell viability in HSF cells at 50 uM after 24 hrs by MTT assay. The format is cell-based, Fibroblast. The following applies: human, read-out: Activity.
The test system of data set [15] is RPMI-8226. Kind of data set: Cell viability in human RPMI 8226 ECACC 87012702 cancer cells at 50 uM after 24 hrs by MTT assay. The format is functional.
The nature of data set [16]: Cell viability in HSF cells at 1 uM after 24 hrs by MTT assay. The format is cell-based, Fibroblast. Particulars: human, read-out: Activity.
The nature of data set [17]: Cell viability in HSF cells at 100 uM after 24 hrs by MTT assay. The format is functional, Homo sapiens, Fibroblast.
Data set [18] concerns Escherichia coli. As to the kind of experiment: Antibacterial activity against Escherichia coli after 24 hrs by microdilution broth method. The format is functional.
Data set [19] relates to Staphylococcus aureus. As to the kind of experiment: Antibacterial activity against Staphylococcus aureus after 24 hrs by microdilution broth method. The format is functional.
The subject of data set [20] is Staphylococcus epidermidis. Kind of data set: Antibacterial activity against Staphylococcus epidermidis after 24 hrs by microdilution broth method. The data set is classed as functional.

In brackets after ≈: the same amount, converted by molar mass. Some results are limits rather than exact numbers.

With `Cc1cccc(N2CCn3c2n[nH]c(=O)c3=O)c1C`, the cytotoxicity at 72 h, 10 ug/ml in data set [1] turned out to be 18%. Moreover, the cytotoxicity at 72 h, 50 ug/ml in data set [2] worked out at 18%. In addition, the inhibition at 10 µg/mL stood at 0% in data set [3], 0% in data set [6], 21% in [8] and 0% in data set [10]. For the same compound, the inhibition at 50 µg/mL stood at 0% in data set [4], 0% in data set [5], 0% in data set [7] and 22% in [9].
For the compound `O=c1[nH]nc2n(c1=O)CCN2c1cccc(Cl)c1`, the Activity is 89% in data set [11], 62% in data set [12], 68% in data set [15] and 91% in data set [17]. Further, in data set [1], the cytotoxicity at 72 h, 10 ug/ml was found to be 11%. In addition, in data set [13], the LD50 was above 2000 mg/kg. Moreover, in data set [14], the viability at 24 h, 50 µM came to 91%. In addition, the cytotoxicity at 72 h, 50 ug/ml in [2] is 24%. In addition, the inhibition at 10 µg/mL came to 27% in [3], 0% in [6], 0% in [8] and 0% in data set [10]. Also, the inhibition at 50 µg/mL came to 0% in [4], 38% in data set [5], 0% in [7] and 0% in [9]. For the same compound, the viability at 24 h, 1 µM in data set [16] was 95%.
In the case of `CC1(C)S[C@@H]2[C@H](NC(=O)[C@H](N)c3ccccc3)C(=O)N2[C@H]1C(=O)O` [AMPICILLIN], the minimum inhibitory concentration (MIC) was 35.8 µM (≈ 12.5 µg/mL) in data set [18], 35.8 µM (≈ 12.5 µg/mL) in [19] and 71.5 µM (≈ 25 µg/mL) in [20].
Turning to `Cc1ccccc1N1CCn2c1n[nH]c(=O)c2=O`, the Activity worked out at 101% in data set [11], 133% in data set [12], 121% in data set [15] and 108% in data set [17]. The cytotoxicity at 72 h, 10 ug/ml in data set [1] was 0%. The viability at 24 h, 50 µM in data set [14] amounted to 110%. The cytotoxicity at 72 h, 50 ug/ml in data set [2] amounted to 0%. In addition, the inhibition at 10 µg/mL in [3] was 0%; in data set [6], 24%; in data set [8], 0%; in data set [10] it was 0%. Besides, the inhibition at 50 µg/mL stood at 0% in data set [4], 0% in data set [5], 29% in data set [7] and 0% in data set [9]. In addition, the viability at 24 h, 1 µM in data set [16] worked out at 104%.
Consider `N=c1c(=O)[nH]nc2n1CCN2c1ccccc1Cl`, for which the Activity is 93% in [11], 93% in data set [12], 94% in data set [15] and 101% in data set [17]. Besides, the cytotoxicity at 72 h, 10 ug/ml in [1] came out at 0%. Also, in data set [14], the viability at 24 h, 50 µM came to 104%. Also, the cytotoxicity at 72 h, 50 ug/ml in data set [2] came to 2%. Besides, the inhibition at 10 µg/mL was found to be 0% in data set [3], 6% in data set [6], 0% in [8] and 6% in data set [10]. For the same compound, the inhibition at 50 µg/mL came to 2% in [4], 0% in [5], 16% in data set [7] and 0% in data set [9]. In addition, the viability at 24 h, 1 µM in data set [16] was determined as 100%.
`N=c1c(=O)[nH]nc2n1CCN2c1ccccc1`: the Activity in data set [11] is on record as 95%; in data set [12], 106%; in data set [15], 103%; in data set [17], 106%. Besides, the cytotoxicity at 72 h, 10 ug/ml in data set [1] came out at 26%. In [14], the viability at 24 h, 50 µM came out at 103%. The cytotoxicity at 72 h, 50 ug/ml in data set [2] came to 30%. The inhibition at 10 µg/mL in data set [3] amounted to 30%; in data set [6] it was 7%; in data set [8], 0%; in data set [10], 0%. Besides, the inhibition at 50 µg/mL in [4] is 1%; in data set [5], 34%; in data set [7] it was 38%; in [9], 3%. Further, the viability at 24 h, 1 µM in [16] was 101%.
For `N=c1c(=O)[nH]nc2n1CCN2c1ccc(Cl)cc1`, the Activity in [11] is recorded as 94%; in data set [12], 64%; in data set [15], 76%; in data set [17] it was 74%. Also, the cytotoxicity at 72 h, 10 ug/ml in [1] worked out at 0%. Also, in data set [14], the viability at 24 h, 50 µM amounted to 84%. Moreover, the cytotoxicity at 72 h, 50 ug/ml in data set [2] amounted to 0%. The inhibition at 10 µg/mL is 8% in [3], 25% in [6], 16% in [8] and 0% in data set [10]. Also, the inhibition at 50 µg/mL in [4] turned out to be 5%; in data set [5] it was 0%; in data set [7], 27%; in [9], 27%. For the same compound, the viability at 24 h, 1 µM in data set [16] amounted to 98%.
For the compound `N/N=C1\NCCN1c1ccccc1Cl`, the cytotoxicity at 72 h, 10 ug/ml in data set [1] stood at 0%. Also, the cytotoxicity at 72 h, 50 ug/ml in data set [2] was 0%. Besides, the inhibition at 10 µg/mL in data set [3] amounted to 2%; in data set [8], 22%; in data set [10], 7%. The results for the inhibition at 50 µg/mL in [4], in [5] and in [9] were 0%, 0% and 27%, respectively.
As to `N=c1c(=O)[nH]nc2n1CCN2c1cccc(Cl)c1`, the cytotoxicity at 72 h, 10 ug/ml in data set [1] is 0%. For the same compound, the cytotoxicity at 72 h, 50 ug/ml in data set [2] came out at 0%. The inhibition at 10 µg/mL in data set [3] came out at 6%; in data set [6], 36%; in data set [8] it was 3%; in data set [10], 0%. In addition, the inhibition at 50 µg/mL in [4] stood at 1%; in [5] it was 2%; in [7], 50%; in data set [9] it was 31%.
As for `N/N=C1\NCCN1c1cccc(Cl)c1`, the cytotoxicity at 72 h, 10 ug/ml in data set [1] was 0%. Also, the cytotoxicity at 72 h, 50 ug/ml in data set [2] stood at 10%. The inhibition at 10 µg/mL is 0% in [3], 5% in data set [8] and 8% in data set [10]. Besides, the inhibition at 50 µg/mL in [4], in [5] and in data set [9] was 0% throughout.
As for `Cc1ccc(N2CCN/C2=N\N)cc1`, the cytotoxicity at 72 h, 10 ug/ml in [1] turned out to be 0%. Besides, the cytotoxicity at 72 h, 50 ug/ml in data set [2] is 9%. In addition, the values for the inhibition at 10 µg/mL in data set [3], in [8] and in [10] were 3%, 12% and 11%, respectively. In addition, the inhibition at 50 µg/mL in data set [4] amounted to 15%; in [5], 0%; in data set [9], 17%.
For the compound `O=c1[nH]nc2n(c1=O)CCN2c1ccc(Cl)c(Cl)c1`, the Activity came to 98% in [11], 25% in [12], 35% in [15] and 90% in data set [17]. In [14], the viability at 24 h, 50 µM turned out to be 90%. In addition, the viability at 24 h, 1 µM in data set [16] was 109%.
Regarding `O=C(N[C@H](CO)[C@H](O)c1ccc([N+](=O)[O-])cc1)C(Cl)Cl` [CHLORAMPHENICOL], the values for the MIC in data set [18], in data set [19] and in [20] were 12.1 µM (≈ 3.91 µg/mL), 12.1 µM (≈ 3.91 µg/mL) and 6 µM (≈ 1.94 µg/mL), respectively.
